biological target: T1, recombinant human liver glycogen phosphorylase (Homo sapiens, UniProt P06737); experiment: Measuring liver glycogen phosphorylase activity (forward reaction system, NADPH absorbance at 340 nm); format: biochemical; conditions: compound concentration 300 nmol (in parentheses); read-out: inhibition rate (%) at a certain concentration
T1 construct: made in house; host or cells: Sf9 insect cells (crude homogenate, diluted, used as the enzyme solution)
T1 sequence (P06737 1-847): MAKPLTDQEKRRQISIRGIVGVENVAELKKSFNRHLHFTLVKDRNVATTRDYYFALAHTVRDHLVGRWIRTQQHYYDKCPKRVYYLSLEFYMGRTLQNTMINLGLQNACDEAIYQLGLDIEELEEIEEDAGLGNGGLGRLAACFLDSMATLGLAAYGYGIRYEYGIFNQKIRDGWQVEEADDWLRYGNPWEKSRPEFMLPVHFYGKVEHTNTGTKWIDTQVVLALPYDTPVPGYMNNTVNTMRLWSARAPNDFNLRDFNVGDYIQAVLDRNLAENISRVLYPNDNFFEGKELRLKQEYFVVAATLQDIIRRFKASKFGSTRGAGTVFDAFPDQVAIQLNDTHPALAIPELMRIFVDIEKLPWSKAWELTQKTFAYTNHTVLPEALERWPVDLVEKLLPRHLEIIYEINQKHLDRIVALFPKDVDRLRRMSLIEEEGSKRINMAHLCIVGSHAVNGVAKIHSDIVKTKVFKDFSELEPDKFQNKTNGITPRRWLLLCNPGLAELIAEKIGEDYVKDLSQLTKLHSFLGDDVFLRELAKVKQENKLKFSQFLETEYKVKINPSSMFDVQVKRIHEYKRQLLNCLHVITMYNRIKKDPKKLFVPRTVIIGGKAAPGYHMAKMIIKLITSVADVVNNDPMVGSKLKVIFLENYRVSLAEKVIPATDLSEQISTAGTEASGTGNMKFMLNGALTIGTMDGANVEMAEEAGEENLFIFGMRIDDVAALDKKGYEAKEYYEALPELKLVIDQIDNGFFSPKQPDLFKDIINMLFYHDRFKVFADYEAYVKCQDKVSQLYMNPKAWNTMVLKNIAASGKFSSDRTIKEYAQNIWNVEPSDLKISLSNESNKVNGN
Procedure: [Pharmacological Test] 1. Exemplary Test (1) Method for Measuring Liver Glycogen Phosphorylase Activity
The measurement of glycogen phosphorylase activity was carried out by a method using the forward reaction system.
The measurement of glycogen phosphorylase activity using the forward reaction system was carried out as follows. Glucose-1-phosphate prepared from glycogen by glycogen phosphorylase was converted into glucono-δ-lactone 6-phosphate through transphosphorylation and dehydrogenation using phosphoglucomutase and glucose-6-phosphate dehydrogenase (G6PDH). NADPH generated from NADP during the dehydrogenation by G6PDH was detected.
A homogenate of the Sf9 cells which expressed exogenously recombinant human liver glycogen phosphorylase was diluted with 100 mmol/LBES buffer solution (pH 6.8, containing 2 mmol/L EDTA) and the dilution was used as the enzyme solution of human liver glycogen phosphorylase. As the substrate, a phosphate buffer (containing 16 mmol/L KH2PO4, 24 mmol/L Na2HPO4) was used. A mixture of 8 U/mL phosphoglucomutase and 60 U/mL G6PDH was prepared in BES buffer solution. Buffer solution (containing 1.4 mmol/L NADP, 30 mmol/L MgCl2, 8 μmol/L glucose-1,6-diphosphate, 8 mg/mL glycogen, 40 mmol/LBES, 0.8 mmol/L EDTA) for reaction and a glucose solution (containing 75 mmol/L glucose, 100 mmol/LBES, 2 mmol/L EDTA) were prepared individually. The test compound was dissolved in 1% DMSO solution.
The enzymatic reaction was begun by adding 20 μL of the recombinant human liver glycogen phosphorylase solution and 20 μL of the mixture of phosphoglucomutase and G6PDH to the mixture of 20 μL of the glucose solution, 20 μL of the substrate, 100 μL of the buffer solution for reaction and 20 μL of the test compound solution. As control, 1% DMSO solution was added instead of the test compound. The mixture without the substrate was used as blank. The absorbance at 340 nm was measured immediately after the reaction started. The absorbance at 340 nm was measured again after reacting at room temperature for 75 minutes. The enzymatic activity is a value obtained by subtracting the blank variation in absorbance over 75 minutes from the variation in absorbance over 75 minutes.
The inhibition rate (%) of the test compound was calculated by the expression “(1-enzymatic activity of test compound/enzymatic activity of control)×100.”
A linear equation was determined from the two concentration points with the 50% inhibition rate therebetween, and the IC50 value was calculated from the concentration at the intersection of the line with the 50% inhibition rate.
“IC50” in the tables indicates the above-described enzyme inhibitory activity with respect to liver glycogen phosphorylase, and the activity to inhibit liver glycogen phosphorylase was represented as ++ when the IC50 value (nmol/L) was less than 100 nmol/L, as + when the IC50 value was between 100 nmol/L and 300 nmol/L. When IC50 is 300 nmol/L or more, an inhibition rate (%) at a certain concentration of the compound (I) of the present invention is shown in Tables. For example, when the inhibition rate is 20% at a concentration of 300 nmol, the rate is described as 20% (300).

| inhibition at 0.3 µM [%] | Compound |
| --- | --- |
| 23.3 | O=C(NC1CCCCC1)c1cc(NC(=O)c2cc(F)c(F)cc2Cl)[nH]n1 [Example 1-79] |
| 6.1 | CN1CCC(N(C)C(=O)c2cc(NC(=O)c3cc(F)c(F)cc3Cl)[nH]n2)CC1 [Example 1-83] |

same assay, conditions: compound concentration 1000 nmol (in parentheses); read-out: inhibition rate (%) at a certain concentration

| inhibition at 1 µM [%] | Compound |
| --- | --- |
| 43.8 | O=C(Nc1cc(C(=O)N(CCO)c2ccccc2)n[nH]1)c1cc(F)c(F)cc1Cl [Example 1-77] |

same assay, conditions: enzyme inhibitory activity with respect to liver glycogen phosphorylase; class symbols

| IC50 [nM] | Compound |
| --- | --- |
| < 100 | CCN(CC)C(=O)c1cc(NC(=O)c2cc(F)c(F)cc2Cl)[nH]n1 [Example 1-4] |
| < 100 | O=C(NCc1ccccc1F)c1cc(NC(=O)c2cc(F)c(F)cc2Cl)[nH]n1 [Example 1-8] |
| < 100 | O=C(NCc1cccc(F)c1)c1cc(NC(=O)c2cc(F)c(F)cc2Cl)[nH]n1 [Example 1-9] |
| 100 to 300 | CN(C)c1ccccc1CNC(=O)c1cc(NC(=O)c2cc(F)c(F)cc2Cl)[nH]n1 [Example 1-10] |
| < 100 | COc1ccc(CNC(=O)c2cc(NC(=O)c3cc(F)c(F)cc3Cl)[nH]n2)c(OC)c1 [Example 1-14] |
| < 100 | COc1cc(CNC(=O)c2cc(NC(=O)c3cc(F)c(F)cc3Cl)[nH]n2)cc(OC)c1 [Example 1-16] |
| < 100 | COc1ccc(CNC(=O)c2cc(NC(=O)c3cc(F)c(F)cc3Cl)[nH]n2)cc1OC [Example 1-17] |
| < 100 | O=C(NCc1cc(F)ccc1F)c1cc(NC(=O)c2cc(F)c(F)cc2Cl)[nH]n1 [Example 1-20] |
| < 100 | O=C(NCc1ccc(F)c(F)c1)c1cc(NC(=O)c2cc(F)c(F)cc2Cl)[nH]n1 [Example 1-22] |
| < 100 | O=C(NCc1cc(F)cc(F)c1)c1cc(NC(=O)c2cc(F)c(F)cc2Cl)[nH]n1 [Example 1-23] |
| < 100 | O=C(NCc1cccc(C(F)(F)F)c1)c1cc(NC(=O)c2cc(F)c(F)cc2Cl)[nH]n1 [Example 1-28] |
| < 100 | O=C(NCc1ccc(C(F)(F)F)cc1)c1cc(NC(=O)c2cc(F)c(F)cc2Cl)[nH]n1 [Example 1-29] |
| < 100 | O=C(NCc1cccnc1OCC(F)(F)F)c1cc(NC(=O)c2cc(F)c(F)cc2Cl)[nH]n1 [Example 1-32] |
| < 100 | O=C(NCc1c(F)cccc1Cl)c1cc(NC(=O)c2cc(F)c(F)cc2Cl)[nH]n1 [Example 1-36] |
| < 100 | COC(=O)CCNC(=O)c1ccc(CNC(=O)c2cc(NC(=O)c3cc(F)c(F)cc3Cl)[nH]n2)cc1 [Example 1-44] |
| < 100 | Cc1nc(CNC(=O)c2cc(NC(=O)c3cc(F)c(F)cc3Cl)[nH]n2)cs1 [Example 1-45] |
| < 100 | O=C(NCCO)c1ccc(CNC(=O)c2cc(NC(=O)c3cc(F)c(F)cc3Cl)[nH]n2)cc1 [Example 1-48] |
| < 100 | CC(=O)OCCN(CCO)CCNC(=O)c1ccc(CNC(=O)c2cc(NC(=O)c3cc(F)c(F)cc3Cl)[nH]n2)cc1 [Example 1-49] |
| < 100 | O=C(NCc1nccs1)c1cc(NC(=O)c2cc(F)c(F)cc2Cl)[nH]n1 [Example 1-51] |
| < 100 | O=C(NCc1csc(N2CCOCC2)n1)c1cc(NC(=O)c2cc(F)c(F)cc2Cl)[nH]n1 [Example 1-54] |
| < 100 | CN(C)c1nc(CNC(=O)c2cc(NC(=O)c3cc(F)c(F)cc3Cl)[nH]n2)cs1 [Example 1-57] |
| < 100 | Cc1nn(-c2ccccc2)nc1CNC(=O)c1cc(NC(=O)c2cc(F)c(F)cc2Cl)[nH]n1 [Example 1-61] |
| < 100 | Nc1ccccc1CNC(=O)c1cc(NC(=O)c2cc(F)c(F)cc2Cl)[nH]n1 [Example 1-65] |
| 100 to 300 | O=C(Nc1cc(C(=O)N(Cc2ccccc2)Cc2ccccc2)n[nH]1)c1cc(F)c(F)cc1Cl [Example 1-74] |
| < 100 | O=C(NCC1CCCCC1)c1cc(NC(=O)c2cc(F)c(F)cc2Cl)[nH]n1 [Example 1-76] |
| < 100 | CCCCN(Cc1ccccc1)C(=O)c1cc(NC(=O)c2cc(F)c(F)cc2Cl)[nH]n1 [Example 1-85] |

Second part, the molecule before the results:

| Compound | IC50 [nM] |
| --- | --- |
| O=C(NCc1cccnc1)c1cc(NC(=O)c2cc(F)c(F)cc2Cl)[nH]n1 [Example 1-1, 5-(2-chloro-4,5-difluoro-benzoylamino)-1H-pyrazole-3-carboxylic acid (pyridin-3-ylmethyl)-amide] | < 100 |
| Cc1nc(C)c(CNC(=O)c2cc(NC(=O)c3cc(F)c(F)cc3Cl)[nH]n2)o1 [Example 1-2-2, 5-(2-chloro-4,5-difluoro-benzoylamino)-1H-pyrazole-3-carboxylic acid (2,4-dimethyl-oxazol-5-ylmethyl)-amide p-toluenesulfonate] | < 100 |
| CCN(Cc1ccncc1)C(=O)c1cc(NC(=O)c2cc(F)c(F)cc2Cl)[nH]n1 [Example 1-5] | < 100 |
| COCCN(C)C(=O)c1cc(NC(=O)c2cc(F)c(F)cc2Cl)[nH]n1 [Example 1-6] | 100 to 300 |
| CCN(CCOC)C(=O)c1cc(NC(=O)c2cc(F)c(F)cc2Cl)[nH]n1 [Example 1-7] | 100 to 300 |
| CCCN(C(=O)c1cc(NC(=O)c2cc(F)c(F)cc2Cl)[nH]n1)C1CCC(C(=O)OCC)CC1 (stereo not shown) [Example 1-11] | 100 to 300 |
| COc1cccc(CNC(=O)c2cc(NC(=O)c3cc(F)c(F)cc3Cl)[nH]n2)c1OC [Example 1-13] | < 100 |
| O=C(NCc1ncccc1C(F)(F)F)c1cc(NC(=O)c2cc(F)c(F)cc2Cl)[nH]n1 [Example 1-27] | < 100 |
| CC(C)(C)c1ccc(CNC(=O)c2cc(NC(=O)c3cc(F)c(F)cc3Cl)[nH]n2)cc1 [Example 1-30] | < 100 |
| CN(C)CCNC(=O)c1ccc(CNC(=O)c2cc(NC(=O)c3cc(F)c(F)cc3Cl)[nH]n2)cc1 [Example 1-33] | < 100 |
| CCc1ccc(CNC(=O)c2cc(NC(=O)c3cc(F)c(F)cc3Cl)[nH]n2)cc1 [Example 1-34] | < 100 |
| CC(C)c1ccc(CNC(=O)c2cc(NC(=O)c3cc(F)c(F)cc3Cl)[nH]n2)cc1 [Example 1-35] | < 100 |
| COC(=O)CNC(=O)c1ccc(CNC(=O)c2cc(NC(=O)c3cc(F)c(F)cc3Cl)[nH]n2)cc1 [Example 1-43] | < 100 |
| CC(=O)OCCN(CCNC(=O)c1ccc(CNC(=O)c2cc(NC(=O)c3cc(F)c(F)cc3Cl)[nH]n2)cc1)CCOC(C)=O [Example 1-47] | < 100 |
| Cc1nc(CNC(=O)c2cc(NC(=O)c3cc(F)c(F)cc3Cl)[nH]n2)c(C)s1 [Example 1-53] | < 100 |
| Cc1nn(C)c(C)c1CNC(=O)c1cc(NC(=O)c2cc(F)c(F)cc2Cl)[nH]n1 [Example 1-55] | < 100 |
| Cn1cccc1CNC(=O)c1cc(NC(=O)c2cc(F)c(F)cc2Cl)[nH]n1 [Example 1-58] | < 100 |
| CC(C)(C)c1cnc(CNC(=O)c2cc(NC(=O)c3cc(F)c(F)cc3Cl)[nH]n2)s1 [Example 1-60] | < 100 |
| CC(C)(C)OC(=O)NCc1ccnc(CNC(=O)c2cc(NC(=O)c3cc(F)c(F)cc3Cl)[nH]n2)c1 [Example 1-62] | < 100 |
| N#CC(NC(=O)c1cc(NC(=O)c2cc(F)c(F)cc2Cl)[nH]n1)c1ccccc1 (stereo not shown) [Example 1-75] | < 100 |
